Experimental data taken from patent US12084430B2, “Tricyclic urea compounds as JAK2 V617F inhibitors” (Incyte Corporation, priority 2022, dated 2024).
Like-named read-outs stand apart in the source and are kept apart here.

How the values were obtained:
[1] = tested on: KIT; experiment: KIT enzymatic assay; assay type: biochemical
Method: (§1) Example D. KIT Enzymatic Assay
(§2) The kinase assays were carried out at room temperature in assay buffer (HEPES 50 mM, pH 7.0, NaN3 0.02%, BSA 0.01%, Orthovanadate 0.1 mM, DTT 1 mM, MgCl2 10 mM) in a final volume of 10 μL. Testing compounds were prepared by serial dilution in DMSO and transferred to the plate wells by ECHO liquid handler (Labcyte) with 0.5% DMSO in the final assay. […]. Reactions were initiated by the addition of 5 μL ATP in assay buffer. The final 10 μL kinase reaction consists of 0.12 nM KIT, 1 mM ATP, 500 nM TK Substrate-biotin and SEB reagent 62.5 nM in assay buffer. […] The plates were then sealed and centrifuged at 1800 rpm for 2 minutes. After 60 minutes incubation at room temperature, the product activity was determined by measuring the fluorescence at 620 nm and 665 nm on Pherastar microplate reader (BMG Labtech). A ratio is calculated (665/620 nm) for each well. Wells with DMSO only were served as the positive controls and wells containing no ATP were used as negative controls. IC50 determination was performed by fitting the curve of percent control activity versus the log of the compound concentration using the GraphPad Prism 7.0 software.

[2] = molecular target: KIT (Homo sapiens, UniProt P10721); experiment: KIT enzymatic assay; assay type: biochemical; details: 1 mM ATP
Method: as §1, §2

[3] = molecular target: T1, catalytic domain (JH1, amino acids 826-1132) of human JAK2 (Homo sapiens, UniProt O60674); experiment: JAK2 LanthaScreen JH1 binding assay; details: read-out: JH1 Bind IC50
T1 construct: catalytic domain (JH1, amino acids 826-1132) of human JAK2; FLAG (N); biotin (biotinylated); purchased Carna Biosciences 08-445-20N; host or cells: baculovirus expression system
Method: Example A. JAK2 LanthaScreen […] Binding Assay
JAK2 JH1 binding assay utilizes catalytic domain (JH1, amino acids 826-1132) of human JAK2 expressed as N-terminal FLAG-tagged, biotinylated protein in a baculovirus expression system (Carna Biosciences, Product #08-445-20N). The assay was conducted in black 384-well polystyrene plates in a final reaction volume of 20 μL. JAK2 JH1 (1.5 nM) was incubated with compounds (100 nL serially diluted in DMSO) in the presence of 50 nM fluorescent JAK2-JH1 tracer and 0.5 nM Streptavidin-Tb cryptate (Cisbio Part #610SATLB) in assay buffer (50 mM Tris, pH=7.5, 10 mM MgCl2, 0.01% Brij-35, 0.1% BSA, 1 mM EGTA, 5% Glycerol and 5 mM DTT). Non-specific binding was accessed in the presence of 2 mM ATP. After incubation for 2 hours at 25° C., LanthaScreen signals were read on a PHERAstar FS plate reader (BMG LABTECH). Data was analyzed with IDBS XLfit and GraphPad Prism 5.0 software using a four parameter dose response curve to determine IC50 for each compound.

[4] = tested on: pSTAT5 signaling in SET-2 cells in whole blood; experiment: pSTAT5 SET-2 whole blood MSD assay; assay type: cell-based; details: Homo sapiens, pSTAT5, 2 hour, read-out: SET2 WB IC50
Method: Example F. pSTAT5 SET-2 Whole Blood MSD Assay
SET-2 cells shipped from ABS, RPMI1640 medium, Fetal Bovine Serum from Gibco, Phospho-STAT5a,b Whole Cell Lysate Kit from Mesoscale, Retronectin (Recombinant Human Fibronectin Fragment) from TaKaRa, 96 well cell culture plate flat bottom from Corning, lysis buffer from Cell Signaling Technology, and sterile PBS from Gibco. Whole Blood from by BioIVT.
SET-2 cells were cultured in RPMI media with 20% FBS at 37° C. humidified incubator supplied with 5% CO2. On the day of the assay, 40 uL per well of diluted retronectin working solution was added to sterile 96-well clear flat bottom tissue culture plates (1:200 dilution of retronectin in sterile PBS) and incubated at 37 C for 1 hour. After 1 hour, the retronectin working solution was aspirated and SET-2 cells were seeded at 100,000/well in RPMI+20% FBS. Cells were incubated overnight at 37° C. and 5% CO2. The next day, the medium was removed and 40 μL of diluted compounds in serum-free RPMI and whole blood was added to the cells for a 2 hour incubation at 37° C. and 5% CO2. The compound starting concentration is 20 μM and 2.5 fold serial diluted down to 0.21 nM. The whole blood and compound mixture was then aspirated off using the BlueCat plate washer and washed 1× with PBS. Cells were lysed by adding 40 μL of 3× complete lysis buffer and shaken at room temperature for 45-60 minutes (complete lysis buffer consists of Cell Signaling Technology lysis buffer diluted to 3× and supplemented with Mesoscale's protease inhibitor, phosphatase I inhibitor, and phosphatase II inhibitor). The pSTAT5 MSD plates were blocked by adding 150 μL of Blocker A solution per well to the MSD plates and incubated at room temperature with shaking at 400 rpm for one hour or longer. After blocking, plates were washed 3× with 300 μL/well of IX Tris Wash Buffer. After lysis, added 25 μL per well of lysed sample was added to MSD plate and incubated with shaking at 4° C. wrapped in foil overnight. The next day, plates were washed again and 25 μL/well of diluted 1× Detection Antibody Solution, wrapped in foil, and incubated at room temperature with shaking at 400 rpm for 1 hour. Plates were then washed again and lastly, 150 μL/well of 1× Read Buffer T was added to all wells. Plates were analyzed on MSD Discovery within 5 minutes. […] Data analysis was performed in GraphPad Prism using a 4-parameter fit and data was reported as Average±SD.

[5] = tested on: FLT3; experiment: FLT3 enzymatic assay; assay type: biochemical
Method: Example C. FLT3 Enzymatic Assay
as §2, with “0.011” for “0.12”, “FLT3,” for “KIT,”

Chain of KIT (Homo sapiens, UniProt P10721) (P10721 26-976, species assumed): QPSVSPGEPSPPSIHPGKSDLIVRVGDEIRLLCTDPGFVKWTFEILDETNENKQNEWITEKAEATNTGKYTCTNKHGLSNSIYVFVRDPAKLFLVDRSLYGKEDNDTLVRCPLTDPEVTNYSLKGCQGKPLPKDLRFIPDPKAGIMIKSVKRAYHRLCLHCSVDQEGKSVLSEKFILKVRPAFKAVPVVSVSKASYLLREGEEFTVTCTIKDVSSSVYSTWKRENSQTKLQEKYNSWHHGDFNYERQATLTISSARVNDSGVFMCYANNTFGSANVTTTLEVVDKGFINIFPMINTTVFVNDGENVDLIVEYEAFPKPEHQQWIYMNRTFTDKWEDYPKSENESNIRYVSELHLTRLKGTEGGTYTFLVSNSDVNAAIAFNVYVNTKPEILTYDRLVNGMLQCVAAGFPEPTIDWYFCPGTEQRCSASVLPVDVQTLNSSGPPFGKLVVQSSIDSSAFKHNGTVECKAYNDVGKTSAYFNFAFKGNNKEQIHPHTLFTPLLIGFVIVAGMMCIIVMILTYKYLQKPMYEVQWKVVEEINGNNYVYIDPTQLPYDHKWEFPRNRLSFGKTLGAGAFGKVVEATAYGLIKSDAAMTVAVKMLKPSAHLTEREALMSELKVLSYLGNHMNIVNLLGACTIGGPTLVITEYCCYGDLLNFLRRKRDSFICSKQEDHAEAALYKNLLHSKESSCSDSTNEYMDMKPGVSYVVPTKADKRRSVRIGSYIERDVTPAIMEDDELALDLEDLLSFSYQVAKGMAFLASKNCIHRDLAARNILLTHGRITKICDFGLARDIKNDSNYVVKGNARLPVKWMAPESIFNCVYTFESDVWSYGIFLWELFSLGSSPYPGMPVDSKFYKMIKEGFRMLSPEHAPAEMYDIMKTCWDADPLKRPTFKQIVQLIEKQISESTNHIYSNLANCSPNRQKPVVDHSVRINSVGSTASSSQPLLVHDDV
T1 sequence (O60674 826-1132): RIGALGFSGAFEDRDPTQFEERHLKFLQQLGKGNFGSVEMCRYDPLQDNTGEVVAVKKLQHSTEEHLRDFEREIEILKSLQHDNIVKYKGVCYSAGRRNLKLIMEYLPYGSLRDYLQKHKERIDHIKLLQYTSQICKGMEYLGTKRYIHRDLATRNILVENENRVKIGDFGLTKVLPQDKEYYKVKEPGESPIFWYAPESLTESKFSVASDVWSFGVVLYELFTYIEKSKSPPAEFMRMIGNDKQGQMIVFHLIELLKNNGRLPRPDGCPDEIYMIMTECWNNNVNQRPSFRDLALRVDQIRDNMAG

SMILES | Selectivity KIT/JH2 V617F [1] | IC50 [2] [µM] | IC50 ([3]; Table A) [µM] | IC50 ([3]; Table C) [µM] | IC50 [4] [µM] | Selectivity FLT3/JH2 V617F [5]
[2H]C([2H])([2H])n1cc(-c2[nH]c3ncc4c(c3c2-c2ccc(C(C)(C)O)cc2)n([C@@H]2CC[C@@H](NC(=O)OC)C2)c(=O)n4C([2H])([2H])[2H])c(F)n1 [Example 10, Methyl ((1R,3R)-3-(7-(3-fluoro-1-(methyl-d3)-1H-pyrazol-4-yl)-8-(4-(2-hydroxypropan-2-yl)phenyl)-3-(methyl-d3)-2-oxo-3,6-dihydroimidazo[4,5-d]pyrrolo[2,3-b]pyridin-1(2H)-yl)cyclopentyl)carbamate] | *** (selectivity of >1500-fold to ≤1750-fold) | 0.25 to 1.25 | > 1 | > 1 | ≤ 2.5 | **** (selectivity of >1750-fold to ≤5000-fold)
COC(=O)N[C@@H]1CC[C@@H](n2c(=O)n(C)c3cnc4[nH]c(-c5cn(C)nc5OC)c(-c5ccc(F)cc5)c4c32)C1 [Example 1, Methyl ((1R,3R)-3-(8-(4-fluorophenyl)-7-(3-methoxy-1-methyl-1H-pyrazol-4-yl)-3-methyl-2-oxo-3,6-dihydroimidazo[4,5-d]pyrrolo[2,3-b]pyridin-1(2H)-yl)cyclopentyl)carbamate] | ***** (selectivity of >5000-fold to ≤12500-fold) | > 2.5 | > 1 | > 1 | 2.5 to 5 | **** (selectivity of >1750-fold to ≤5000-fold)
[2H]C([2H])([2H])n1cc(-c2[nH]c3ncc4c(c3c2-c2cc(F)c3c(cnn3C([2H])([2H])[2H])c2)n([C@@H]2CC[C@@H](NC(=O)OC)C2)c(=O)n4C([2H])([2H])[2H])c(F)n1 [Example 17, Methyl ((1R,3R)-3-(8-(7-fluoro-1-(methyl-d3)-1H-indazol-5-yl)-7-(3-fluoro-1-(methyl-d3)-1H-pyrazol-4-yl)-3-(methyl-d3)-2-oxo-3,6-dihydroimidazo[4,5-d]pyrrolo[2,3-b]pyridin-1(2H)-yl)cyclopentyl)carbamate] | ****** (selectivity of >12500-fold) | 1.25 to 2.5 | > 1 | > 1 | ≤ 2.5 | ****** (selectivity of >12500-fold)
[2H]C([2H])([2H])n1ncc2cc(-c3c(-c4cn(C)nc4OC)[nH]c4ncc5c(c34)n([C@@H]3CC[C@@H](NC(=O)OC)C3)c(=O)n5C)ccc21 [Example 5, Methyl ((1R,3R)-3-(7-(3-methoxy-1-methyl-1H-pyrazol-4-yl)-3-methyl-8-(1-(methyl-d3)-1H-indazol-5-yl)-2-oxo-3,6-dihydroimidazo[4,5-d]pyrrolo[2,3-b]pyridin-1(2H)-yl)cyclopentyl)carbamate] | ****** (selectivity of >12500-fold) | > 2.5 | > 1 | > 1 | ≤ 2.5 | ***** (selectivity of >5000-fold to ≤12500-fold)
[2H]C([2H])([2H])n1ncc2cc(-c3c(-c4cn(C)nc4OC)[nH]c4ncc5c(c34)n(C3CCOCC3)c(=O)n5C)ccc21 [B, reference compound] | ** (selectivity of >500-fold to ≤1500-fold) |  |  |  | > 7.5 | * (selectivity of ≤500-fold)
COc1nn(C)cc1-c1[nH]c2ncc3c(c2c1-c1ccc2c(cnn2C)c1)n([C@H]1CC[C@@H](CC#N)CC1)c(=O)n3C [E, reference compound] | *** (selectivity of >1500-fold to ≤1750-fold) | 1.25 to 2.5 |  |  |  | * (selectivity of ≤500-fold)
COc1nn(C)cc1-c1[nH]c2ncc3c(c2c1-c1ccc2c(cnn2C)c1)n(C1CCOCC1)c(=O)n3C [A, reference compound] | * (selectivity of ≤500-fold) | 0.25 to 1.25 |  |  | > 7.5 | * (selectivity of ≤500-fold)
